# According to PubChem BioAssay AID2060898 (Molecular Pharmacology Branch, DTP, NCI, 2025):
# Where “and” joins values, the source holds several entries; their conditions need not be identical. Equal entries are not always repeated.
# Tested on: 616215-338-R-J1-PDC complex spheroid viability
# Experiment: Anticancer human tumor 616215-338-R-J1-PDC patient-derived colon adenocarcinoma cell line growth inhibition [RAS]
# Conditions: for viability, T/C: stronger effect = lower value
# Method in brief: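 Agents were tested in combination matrices in half-log decrements from a top concentration at or near clinical Cmax (10 microM if undetermined). Targets were multi-cell spheroids of tumour lines plus HUVEC and MSC stromal cells.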
# 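Note: spheroids exposed to agents for seven days before viability readout.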
# 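Throughout, for viability, T/C: 100% = DMSO vehicle control viability.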
smiles,measurement,setting,value
CC(Nc1ccc2c(c1)OCCn1cc(N3C(=O)OCC3C(F)F)nc1-2)C(N)=O (configuration not stated) + C#Cc1c(F)ccc2cc(O)cc(-c3ncc4c(N5CC6CCC(C5)N6)nc(OCC56CCCN5CC(F)C6)nc4c3F)c12,IC50,"curve of first compound, second compound 0.0316 µM",> 10 µM
same,IC50,"curve of first compound, second compound 0.1 µM",> 10 µM
same,IC50,"curve of first compound, second compound 0.316 µM",> 10 µM
same,IC50,"curve of first compound, second compound 1 µM",> 10 µM
same,IC50,"curve of first compound, second compound 3.16 µM",> 10 µM
same,IC50,"curve of first compound, second compound 10 µM",< 0.0316 µM
same,"viability, T/C","second compound 0.0316 µM, first compound 0.0316 µM",98.9%
same,"viability, T/C","second compound 0.0316 µM, first compound 0.1 µM",132%
same,"viability, T/C","second compound 0.0316 µM, first compound 0.316 µM",104%
same,"viability, T/C","second compound 0.0316 µM, first compound 1 µM",104%
same,"viability, T/C","second compound 0.0316 µM, first compound 3.16 µM",101%
same,"viability, T/C","second compound 0.0316 µM, first compound 10 µM",73%
same,"viability, T/C","second compound 0.1 µM, first compound 0.0316 µM",104%
same,"viability, T/C","second compound 0.1 µM, first compound 0.1 µM",115%
same,"viability, T/C","second compound 0.1 µM, first compound 0.316 µM",113%
same,"viability, T/C","second compound 0.1 µM, first compound 1 µM",106%
same,"viability, T/C","second compound 0.1 µM, first compound 3.16 µM",98.5%
same,"viability, T/C","second compound 0.1 µM, first compound 10 µM",78.2%
same,"viability, T/C","second compound 0.316 µM, first compound 0.0316 µM",102%
same,"viability, T/C","second compound 0.316 µM, first compound 0.1 µM",122%
same,"viability, T/C","second compound 0.316 µM, first compound 0.316 µM",111%
same,"viability, T/C","second compound 0.316 µM, first compound 1 µM",108%
same,"viability, T/C","second compound 0.316 µM, first compound 3.16 µM",101%
same,"viability, T/C","second compound 0.316 µM, first compound 10 µM",76.8%
same,"viability, T/C","second compound 1 µM, first compound 0.0316 µM",116%
same,"viability, T/C","second compound 1 µM, first compound 0.1 µM",115%
same,"viability, T/C","second compound 1 µM, first compound 0.316 µM",106%
same,"viability, T/C","second compound 1 µM, first compound 1 µM",100%
same,"viability, T/C","second compound 1 µM, first compound 3.16 µM",98.1%
same,"viability, T/C","second compound 1 µM, first compound 10 µM",73.8%
same,"viability, T/C","second compound 3.16 µM, first compound 0.0316 µM",73.4%
same,"viability, T/C","second compound 3.16 µM, first compound 0.1 µM",84.4%
same,"viability, T/C","second compound 3.16 µM, first compound 0.316 µM",81.3%
same,"viability, T/C","second compound 3.16 µM, first compound 1 µM",85.8%
same,"viability, T/C","second compound 3.16 µM, first compound 3.16 µM",91.5%
same,"viability, T/C","second compound 3.16 µM, first compound 10 µM",65.6%
same,"viability, T/C","second compound 10 µM, first compound 0.0316 µM",50.7%
same,"viability, T/C","second compound 10 µM, first compound 0.1 µM",38.7%
same,"viability, T/C","second compound 10 µM, first compound 0.316 µM",34%
same,"viability, T/C","second compound 10 µM, first compound 1 µM",43.4%
same,"viability, T/C","second compound 10 µM, first compound 3.16 µM",31.6%
same,"viability, T/C","second compound 10 µM, first compound 10 µM",34.3%
C[C@@H](NC(=O)c1ncnc(N)c1Cl)c1ncc(C(=O)Nc2cc(C(F)(F)F)c(Cl)cn2)s1,"viability, T/C",compound 0.0316 µM,102% [middle of 4 runs]
same,"viability, T/C",compound 0.1 µM,110% [middle of 4 runs]
same,"viability, T/C",compound 0.316 µM,112% [middle of 4 runs]
same,"viability, T/C",compound 1 µM,124% and 105% and 112% (2×)
same,IC50,curve of compound,> 10 µM and 8.87 µM
